# How the values were obtained:
# [1] = Stability of mini-tablets (Series 1-8) compared to an amoxicillin reference sample as a function of time; type: physicochemical
# Protocol: (§1) The 8 mini-tablets prepared in Example 1 and an amoxicillin reference sample were analyzed for stability. Stability data for clavulanic acid in mini-tablets compared to a clavulanic acid reference sample were also analyzed for stability.
# [2] = Stability of mini-tablets containing clavulanic acid compared to a clavulanic acid reference sample as a function of time; type: physicochemical
# Protocol: as §1
Stability (amoxicillin) as a function of time ([1]; 0 weeks),Stability (amoxicillin) as a function of time ([1]; 1 week),Stability (amoxicillin) as a function of time ([1]; 49 weeks),Stability (clavulanic acid) as a function of time ([2]; 0 weeks),Stability (clavulanic acid) as a function of time ([2]; 1 week),Stability (clavulanic acid) as a function of time ([2]; 26 weeks),SMILES
100.0,100.0,97.8,,,,"CC1(C)S[C@@H]2[C@H](NC(=O)[C@H](N)c3ccc(O)cc3)C(=O)N2[C@H]1C(=O)O [Amoxicillin reference, Amoxicillin]"
,,,100%,86.4%,88.4%,"O=C(O)[C@H]1/C(=C/CO)O[C@@H]2CC(=O)N21 [Clavulanic acid reference, Clavulanic acid]"

# Reference: patent publication US20150238425A1, “MINI-TABLETS” (DSM SINOCHEM PHARMACEUTICALS NETHERLANDS B.V., priority 2012, published 2015)
